We go through five compounds from ChEMBL document CHEMBL4813919, “Development of programmable gemcitabine-GnRH pro-drugs bearing linker controllable "click" oxime bond tethers and preclinical evaluation against prostate cancer” (Eur J Med Chem, 2021).

The term pIC50 denotes the IC50 on a negative log10 scale, so that one unit is a factor of ten. The low end stands for a large IC50, the high end for a small IC50.

pIC50: −log10 of the molar value. Where a SMILES comes first, the peptide text is derived from it. [ ]: non-standard residue; d: D form. The star is where a group is joined. ξ: configuration not given here. X1 = Nc1ccn(C2OC(COC(=O)CO/N=C/C(=O)*)C(O)C2(F)F)c(=O)n1; X2 = O=C(CO/N=C/C(=O)*)Nc1ccn(C2OC(CO)C(O)C2(F)F)c(=O)n1; X3 = Nc1ccn(C2OC(CO)C(OC(=O)CO/N=C/C(=O)*)C2(F)F)c(=O)n1; ξAla(indol-2-yl) = NC(Cc1cc2ccccc2[nH]1)C(=O)O; pGlu = O=C1CC[CH](C(=O)O)N1

Data set [1] is described as follows: Drug uptake in human DU-145 cells assessed as release of gemcitabine at 10 uM measured upto 8 hrs by LC-MS/MS method. In kind it is ADME, cell-based. Conditions: du-145, 8 h; call rule not given here.
A short description of data set [2]: Drug uptake in human DU-145 cells at 10 uM measured upto 8 hrs by LC-MS/MS method. Format: ADME, cell-based. Conditions: du-145, 8 h.
Data set [3] is described as follows: Drug metabolism in human plasma assessed as release of gemcitabine at 1 ug/ml measured after 4 hrs by LC-MS/MS method. As to conditions: dose 1 µg/ml. Format: ADME, cell-free.
A short description of data set [4]: Stability in human plasma at 1 ug/ml measured after 4 hrs by LC-MS/MS method. Format: ADME, cell-free. As to conditions: at 1 µg/mL.
The nature of data set [5]: Drug metabolism in human DU-145 cells assessed as release of gemcitabine at 1 uM measured after 24 hrs by LC-MS/MS method. Format: ADME, cell-based. Conditions: du-145, 24 h.
The nature of data set [6]: Stability in human DU-145 cells at 1 uM measured upto 10 hrs by LC-MS/MS method. In kind it is ADME, cell-based. Conditions: du-145, 10 h.
The subject of another data set is DU-145. Nature of the data set: Antiproliferative activity against human DU-145 cells measured after 72 hrs by MTT assay. Format: functional, cell-based. As to conditions: DU-145, 72 h. (In general: Formazan colour is commonly taken as a measure of viable cells.)
The subject of another data set is PC-3. In words: Antiproliferative activity against human PC-3 cells measured after 72 hrs by MTT assay. Format: functional, cell-based. Conditions: PC-3, 72 h.
Data set [7] is described as follows: In vivo agonist activity at GnRH-R in C57BL6/N mouse assessed as release of testosterone in blood at 639.21 ug/kg, ip measured after 2 hrs by LC-MS/MS analysis. Format: functional. As to conditions: dose 639.21 µg/kg.
Data set [8] can be described thus: Metabolic stability in mouse liver microsomes assessed as GOXG1-met2 formation at 6.13 uM incubated for 1 hr by LC-MS analysis. Format: ADME, Microsome.
Data set [9] is described as follows: Metabolic stability in human liver microsomes assessed as GOXG1-met2 formation at 6.13 uM incubated for 1 hr by LC-MS analysis. In kind it is ADME, Microsome.
The nature of data set [10]: Prodrug conversion in mouse C57BL/6N assessed as gemcitabine release at 10 mg/kg, IP measured after 15 mins by LC-MS/MS analysis. Format: ADME, organism-based. As to conditions: in vivo, 0.25 h.
The nature of data set [11]: Prodrug conversion in mouse C57BL/6N assessed as gemcitabine release at 10 mg/kg, IP measured after 30 mins by LC-MS/MS analysis. Format: ADME, organism-based. As to conditions: in vivo, 0.5 h.
The nature of data set [12]: Prodrug conversion in mouse C57BL/6N assessed as gemcitabine release at 10 mg/kg, IP measured 1 to 2.5 hrs by LC-MS/MS analysis. In kind it is ADME, organism-based. As to conditions: in vivo, time 1-2.5 hrs.
In data set [13] the target is T1, Gonadotropin-releasing hormone receptor (Homo sapiens, UniProt P30968).
T1 sequence (P30968 whole entry): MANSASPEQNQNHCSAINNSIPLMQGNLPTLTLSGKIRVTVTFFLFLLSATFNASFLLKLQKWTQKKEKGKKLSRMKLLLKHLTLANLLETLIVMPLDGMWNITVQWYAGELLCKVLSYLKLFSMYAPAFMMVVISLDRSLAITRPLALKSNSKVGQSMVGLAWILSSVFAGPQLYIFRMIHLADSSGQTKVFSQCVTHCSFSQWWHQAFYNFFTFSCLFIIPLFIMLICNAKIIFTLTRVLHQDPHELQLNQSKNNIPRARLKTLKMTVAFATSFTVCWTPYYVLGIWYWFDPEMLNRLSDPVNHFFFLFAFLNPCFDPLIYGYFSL
Nature of the data set: Displacement of [125I]-DTrp6-LHRH from human GnRH-R by radioligand binding assay.

Data set [14] in a line: In vivo agonist activity at GnRH-R in C57BL6/N mouse assessed as release of testosterone in blood at 105.2 ug/kg, ip measured after 2 hrs by LC-MS/MS analysis. Format: functional. Conditions: dose 105.2 µg/kg.
A short description of data set [15]: Drug uptake in C57BL/6N mouse blood at 10 mg/kg, IP measured after 30 mins of dosing by LC-MS/MS analysis. Format: ADME, organism-based. As to conditions: whole blood, read-out: Drug uptake.
Data set [16] can be described thus: In vivo agonist activity at GnRH-R in C57BL6/N mouse assessed as release of testosterone in blood at 483.6 ug/kg, ip measured after 2 hrs by LC-MS/MS analysis. In kind it is functional. As to conditions: dose 483.6 µg/kg.

For `CC(C)CC(NC(=O)C(CCCCNC(=O)/C=N/OCC(=O)OCC1OC(n2ccc(N)nc2=O)C(F)(F)C1O)NC(=O)C(Cc1ccc(O)cc1)NC(=O)C(CO)NC(=O)C(Cc1cc2ccccc2[nH]1)NC(=O)C(Cc1c[nH]cn1)NC(=O)C1CCC(=O)N1)C(=O)NC(CCCNC(=N)N)C(=O)N1CCCC1C(=O)NCC(N)=O` (stereo unspecified) ([pGlu]H[ξAla(indol-2-yl)]SYK(X1)LRPG-NH2; configuration not given here), the Drug uptake result in data set [1] and in [2] was “Active” each time. The Drug metabolism entry in [3] is “Metabolite_Detected”; in data set [8], “Metabolite_Detected”; in [9], “Metabolite_Detected”; in [10] it was 406 ng/mL; in [11], 385 ng/mL; in [12] it was 600 ng/mL. Further, the Stabilty entry in data set [4], in data set [5] and in [6] was “Stable” in each case. The pIC50 was 6.21 in the data set with DU-145, 6.12 with PC-3 and 8.72 in data set [13]. Besides, in [7], the Activity was 40.1 ng/mL.

For the compound `CC(C)CC(NC(=O)C(CCCCNC(=O)/C=N/OCC(=O)Nc1ccn(C2OC(CO)C(O)C2(F)F)c(=O)n1)NC(=O)C(Cc1ccc(O)cc1)NC(=O)C(CO)NC(=O)C(Cc1cc2ccccc2[nH]1)NC(=O)C(Cc1c[nH]cn1)NC(=O)C1CCC(=O)N1)C(=O)NC(CCCNC(=N)N)C(=O)N1CCCC1C(=O)NCC(N)=O` (stereo unspecified) ([pGlu]H[ξAla(indol-2-yl)]SYK(X2)LRPG-NH2; configuration not given here), the Drug uptake entry in data set [1] and in data set [2] was “Active” each time. Moreover, the Drug metabolism result in data set [3] is reported as “Metabolite_Detected”. In addition, the Stabilty result in data set [4], in [5] and in data set [6] was “Stable” in each case. Besides, the pIC50 was 6.23 in the data set on DU-145 and 6.08 in the data set with PC-3.

Regarding `CC(C)CC(NC(=O)C(CCCCNC(=O)/C=N/OCC(=O)OC1C(CO)OC(n2ccc(N)nc2=O)C1(F)F)NC(=O)C(Cc1ccc(O)cc1)NC(=O)C(CO)NC(=O)C(Cc1cc2ccccc2[nH]1)NC(=O)C(Cc1c[nH]cn1)NC(=O)C1CCC(=O)N1)C(=O)NC(CCCNC(=N)N)C(=O)N1CCCC1C(=O)NCC(N)=O` (stereo unspecified) ([pGlu]H[ξAla(indol-2-yl)]SYK(X3)LRPG-NH2; configuration not given here), the Drug uptake result in data set [1] and in data set [2] was “Active” in each case. Besides, the Drug metabolism result in data set [3] is “Metabolite_Detected”. Further, the Stabilty entry in data set [4], in [5] and in data set [6] was “Unstable” throughout. Moreover, the pIC50 is 6.31 with DU-145 and 6.17 in the data set with PC-3.

With `Nc1ccn([C@@H]2O[C@H](CO)[C@@H](O)C2(F)F)c(=O)n1` [GEMCITABINE], the results for the pIC50 with DU-145 and in the data set on PC-3 were 6.40 and 6.26, respectively. In addition, the Activity in data set [14] is 0.3 ng/mL. Moreover, the concentration at 0.5 h in [15] was determined as 685 ng/mL.

Consider `CCNC(=O)[C@@H]1CCCN1C(=O)[C@H](CCCNC(=N)N)NC(=O)[C@H](CC(C)C)NC(=O)[C@@H](CC(C)C)NC(=O)[C@H](Cc1ccc(O)cc1)NC(=O)[C@H](CO)NC(=O)[C@H](Cc1c[nH]c2ccccc12)NC(=O)[C@H](Cc1c[nH]cn1)NC(=O)[C@@H]1CCC(=O)N1` [LEUPROLIDE], for which, in [16], the Activity was determined as 40.9 ng/mL.
